Entries after “also recorded” stand apart in the source; their conditions may differ.
Key:
human NSCs = assay: Proliferation of human NSCs in culture; type: cell-based
[1] = system: cells in the brain of rodents; assay: NBI-18 injections: cell proliferation and neurogenesis in rodent brain; type: in vivo
[2] = system: BrdU positive cells of the epidermis; assay: Topical application study: BrdU immunohistochemistry of epidermis; type: in vivo, C57 BL/6 mice
Protocol: (§1) Based on the inventors' realizations, the decision was made to test NBI-18 in a topical application study to induce the genesis or re-growth of hair. Varying doses of NBI-18 [0.75 mg/ml, 1.5 mg/ml, 3.0 mg/ml, and control (50% ETOH)] was delivered in 5 ul drops to shaved locations on the back of C57 BL/6 mice. The varying doses were given 5 consecutive days and on day 4 and 5 BrdU (100 mg/kg, ip) was injected. […] NBI-18 has proven to produce a desired affect in rodent models that show a predominant re-growth of hair using the topical application of the small molecular pyrimidine compound known as NBI-18. We are hypothesizing that NBI-18 treatment will lead to greater cytogenesis and eventually lead to a commercial product that will eradicate hair loss. These studies will be further described in the Examples provided below.
In this study, the inventors determined a dose range where keratinogenesis occurs in healthy mice to help us learn about the fate of newly formed cells within the epidermis. […] In order for us to eliminate unnecessary anesthesia, our vehicle of delivery was 50% Ethanol (ETOH). NBI-18 was suspended in 50% ETOH using the concentrations of 0.75 mg/ml, 1.5 mg/ml, 3.0 mg/ml, and control (50% ETOH) respectively.
A. Two C57 BL/6 mice were selected for the topical application study of NBI-18. The mice were prepped by shaving four specific locations lateral/dorsal in a circular pattern. NBI-18 was delivered to the specified areas (right, counterclockwise from lowest to highest dose, then control) in concentrations of 1.5 mg/ml, 3.0 mg/ml, 6.0 mg/ml and control (50% ETOH) respectively. The solutions were applied to the center of these locations in a 5 ul dose for 5 consecutive days and on days 4 and 5 BrdU (100 mg/K, ip) was injected. On day 7 the mice were euthanized using a high dose pentobarbital (70 mg/kg, ip) and the treated epidermis was dissected and placed into 4% paraformaldehyde fixative for 48 hour
Immunohistochemistry of epidermis. Epidermal sections were mounted into square embedding molds with freezing medium (O.C.T. compound, Tissue Tek), sliced in 20 uM sections then mounted onto adhesive coated slides (Instrumedics, Inc) via tape transfer method. Slides were washed with PBS then placed in 2NHCL for 30 minutes to […]. Slides were then washed again with PBS, then blocked using 3% Donkey serum in PBST for 1 hour. Primary anti-body suspended in blocking solution used was anti-BrdU (sigma) at 1:1000 overnight in 4C. Slide were washed 3× then placed in secondary anti-body suspended in blocking solution, FITC (Jackson ImmunoResearch) at 1:500 for 2 hours at room temperature then washed with PBS. Slides were mounted using Vectashield with Dapi. […]

hair re-growth = assay: Topical application study: hair re-growth on shaved skin; type: in vivo, C57 BL/6 mice; conditions: topical 0.75, 1.5, 3.0 mg/ml, 5 consecutive days
Protocol: as §1
B. Four C57 BL/6 mice were selected for the topical application study of NBI-18. The mice were prepped by shaving four specific locations lateral/dorsal in a circular pattern. NBI-18 was delivered to the specified areas (right, counterclockwise from lowest to highest dose, then control) in concentrations of 0.75 mg/ml, 1.5 mg/ml, and 3.0 mg/ml, and control (50% ETOH) respectively. The solutions were applied to the center of these locations in a 5 ul dose for 5 consecutive days and on days 4 and 5 BrdU (100 mg/K, ip) was injected. […]

[3] = Toxicity study (i.p., 7 days; rotarod, open field, postural reflex, forelimb placing); type: in vivo, C57 BL/6 mice; conditions: 100, 300, 1000 mg/kg/day i.p. for 7 days
Protocol: A total of 16 male C57 BL/6 mice (12 weeks old) weighing 25-30 g were used to investigate the toxicity of NBI-18. The mice were maintained on a 12-h light/dark cycle, and had free access to food and water through the study period. These animals were housed four per cage. In this study, animals were divided into four groups (four/group). Acute toxicity has been tested up to 1000 mg/kg. NBI-18 (0, 100, 300,1000 mg/kg/day, i.p.) was injected for 7 days and for the control group, the same volume of vehicle saline was injected. Bromodeoxyuridine (BrdU)(Sigma Chemical Co., St Louis, Mo.), was injected (100 mg/kg/day, i.p.) for the last three days (days 5-7). For behavioral testing, rotarod and open field tests were used to examine balance and coordination of mice before, during and after NBI-18 injection. Also, postural reflex and forelimb placing tests were performed to evaluate the neurological functions for the animals. All the animals were anesthetized with pentobarbital (i.p.) 48 h after the last BrdU injection and immediately per fused with 4% paraformaldehyde fixative. The brains were immediately dissected, post fixed for 24 h and processed for immunohistochemistry.

[4] = Ames test by a third party; conditions: third party company
Excerpt: (§2) U.S. Pat. Nos. 4,959,368; 5,976,523. One derivative of interest is heterocyclic pyrimidine molecule referred to herein as ‘NBI-18’ (2-piperadino-6-methyl-5-oxo-5,6-dihydro-(7H) pyrrolo-[3,4-d]pyrimidine maleate; Mwt. 349.54). […] U.S. Patent Pub 20030139410. The mechanism of action of NBI-18 is not known, although some evidence implies the activation of the MAPK (mitogen activated protein kinase) pathway, a cascade that is also activated by peptide growth factors. […] NBI-18 has been tested in isolated animal models—axon growth in mice and muscle regeneration in rats—with no evidence of mechanistic details relating to function. Mechanism of action studies to find the drug target, are planned as part of our ongoing research. Upon learning about the availability of NBI-18 family of molecules, it was hypothesized that the compounds may be involved in the proliferation process of Stem Cells and the inventors decided to examine the possible implication for genesis of Keratinocyte Stem Cells (KSCs) or possibly the human bulge cells which provide the niche for KSCs, in animal models.

[5] = Absorption and half-life in rodents (HPLC analysis); type: in vivo, rat
Excerpt: as §2

[6] = Extraction of NBI-18 from epidermis of treated mice; type: in vivo; conditions: 24 hours post-injection
Excerpt: as §2

rodent cortical neurons = conditions: cited from earlier work
[7] = daily injections for five days, rodents

SMILES: CN1Cc2nc(N3CCCCC3)ncc2C1=O.O=C(O)/C=C\C(=O)O [NBI-18, 2-piperadino-6-methyl-5-oxo-5,6-dihydro-(7H) pyrrolo-[3,4-d]pyrimidine maleate]
- proliferation of human NSCs (human NSCs): stimulate the proliferation
- dose dependence of the increase in proliferation ([1]; animal studies): dose dependent
- neurogenesis ([1]; daily injections for five days, at four weeks, young and aged rodents): stable neurogenesis
- pathological effects [1, 7]: no discernible pathological effects
- symptoms of toxicity [1, 7]: no symptoms of toxicity
- proliferation of cells in the brain ([1]; injections 5 mg/kg, rodents): increased proliferation
- newly developed (BrdU) cells versus control ([2]; Example 3A, topical 1.5, 3.0, 6.0 mg/ml, 5 ul, 5 days, FIG. 1): mass increases of newly developed cells
- migration pattern of new cells ([2]; Example 3A, topical 1.5, 3.0, 6.0 mg/ml, FIG. 1): alignment towards migration patterns
- dose dependence of the elevation in BrdU positive stained cells ([2]; topical 0.75, 1.5, 3.0 mg/ml in 50% ETOH): did not demonstrate a dose dependent increase
- BrdU positive (proliferating) cells in comparison to control ([2]; topical 0.75, 1.5, 3.0 mg/ml in 50% ETOH, 5 ul, 5 consecutive days): abundant increase in proliferating cells; also recorded: vast increase; also recorded: dramatic elevation; also recorded: some varying levels of increase; also recorded: increases the number of BrdU positive cells
- time to re-growth of hair near to its original length (hair re-growth): ≤ 7 days
- hair re-growth in treated areas compared to control areas (hair re-growth; 5 ul, shaved skin): visibly complete hair growth; also recorded: visible re-growth of hair; also recorded: actual hair re-growth
- behavioral or neurological changes [3]: no immediate behavioral or neurological changes
- symptoms of toxicity [3]: no symptoms of toxicity
- mutagenicity [4]: not mutagenic; also recorded: no mutagenesis or toxicity
- absorption ([5]; after intraperitoneal as well as oral administration, rodent studies): absorbed well
- oral bioavailability ([5]; general statement): orally bioavailability
- t1/2 ([5]; rat circulation, HPLC analysis): > 4 h
- presence in epidermis [6]: can be extracted
- rate of apoptosis (rodent cortical neurons; TUNEL assays): reducing the rate of apoptosis
- activity in neuron culture (rodent cortical neurons; bFGF, nerve growth factor, EGF, insulin-like growth factor): active primarily in the presence of various growth factors
- survival of rodent cortical neurons (rodent cortical neurons): promoted the survival

— patent publication US8791128B2, “Compositions for treating or delaying the onset of hair loss” (University of Central Florida Research Foundation, Inc., priority 2008, dated 2014)
